# Like-named read-outs stand apart in the source and are kept apart here. *1 amine or outer side, *2 acyl side, *3 side chain or, on linkers, in order; H or OH if unused. Where a SMILES comes first, the peptide text is derived from it. Bridges are numbered along the chain shown (N, C = ends). Primed or numbered codes have the meaning given here. [ ]: non-standard residue; d: D form. The star is where a group is joined. ξ: configuration not given here. Ttds = 1,13-diamino-4,7,10-trioxatridecan-succinamic acid, NCCCOCCOCCOCCCNC(=O)CCC(=O)*; X3 = O=C(O)CN1CCN(CC(=O)O)CCN(CC(=O)NCCCOCCOCCOCCCN*)CCN(CC(=O)O)CC1; NH(1-deoxy-D-glucityl) = OC[C@@H](O)[C@@H](O)[C@H](O)[C@@H](O)CN*; DOTA = O=C(O)CN1CCN(CC(=O)O)CCN(CC(=O)*)CCN(CC(=O)O)CC1; Trp(5-Cl) = N[C@@H](Cc1c[nH]c2ccc(Cl)cc12)C(=O)O; Pyridine(2,6-diCH2) = c1cc(C[*:1])nc(C[*:2])c1; 2Lut″ = 2,6-lutidylidene linking two thiols; Phe(2-Cl) = N[C@@H](Cc1ccccc1Cl)C(=O)O; mXylylene = c1cc(C[*:1])cc(C[*:2])c1; X7 = c1cc(CSCCN[*:2])cc(C[*:1])c1; Hyp = O=C(O)[C@@H]1C[C@@H](O)CN1; X1 = O=C(CN1CCC(N[*:1])CC1)[*:2]; Cysteamide = C(CS[*:3])N[*:1]; Suc = O=C(CCC(=O)[*:2])[*:1]; Thp = NC1(C(=O)O)CCOCC1; Aib = CC(C)(N)C(=O)O; ξP = O=C(O)C1CCCN1
# T1: GIPR (CHO-K1-hGIPR cells) (Homo sapiens, UniProt P48546)
# T1 construct: host or cells: CHO-K1
# T1 sequence (P48546 22-466): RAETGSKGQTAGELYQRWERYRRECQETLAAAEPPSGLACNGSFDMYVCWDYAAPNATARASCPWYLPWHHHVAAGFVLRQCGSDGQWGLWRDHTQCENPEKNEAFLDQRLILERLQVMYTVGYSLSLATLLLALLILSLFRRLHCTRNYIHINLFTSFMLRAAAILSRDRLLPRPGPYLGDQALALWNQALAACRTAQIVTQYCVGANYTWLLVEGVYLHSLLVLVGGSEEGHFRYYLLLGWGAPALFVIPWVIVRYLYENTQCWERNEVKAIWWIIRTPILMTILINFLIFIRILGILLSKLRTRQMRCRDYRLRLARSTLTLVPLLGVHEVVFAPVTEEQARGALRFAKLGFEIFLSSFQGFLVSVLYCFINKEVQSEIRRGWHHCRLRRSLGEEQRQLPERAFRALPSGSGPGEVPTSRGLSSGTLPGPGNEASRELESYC
# T2: human GIP receptor (bioGIPR) (Homo sapiens, UniProt P48546)
# T2 construct: Biotinylate extracellular of the human GIP receptor (bioGIPR, Proteros biostructures GmbH, lot #02/2b); purchased Proteros biostructures GmbH lot #02/2b
# T2 sequence (P48546 22-138 limits assumed): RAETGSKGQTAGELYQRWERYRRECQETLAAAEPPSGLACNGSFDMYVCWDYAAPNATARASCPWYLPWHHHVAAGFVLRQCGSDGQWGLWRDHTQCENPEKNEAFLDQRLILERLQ
# Legend:
# [1] = biological target: T1, GIPR (CHO-K1-hGIPR cells); assay: FACS binding assay; conditions: read-out: pIC50 Category (converted)
# Outline: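 Read-out: flow cytometric median fluorescence intensity, APC/Cy5 channel, plotted vs peptide conc.; 4PL fit → EC50/pEC50 or IC50/pIC50. Cells: CHO-K1-hGIPR, Accutase-detached, 500.000/mL in PBS + 1% FCS. Detection: APC-streptavidin 1 μg/mL, 30 min, on ice.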
# [2] = biological target: T2, human GIP receptor (bioGIPR); assay: Surface plasmon resonance (SPR) based binding assay; conditions: Single Cycle Kinetic mode, 25° C.
# Outline: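 Binding was measured at 25 °C by single-cycle kinetics against a reference flow cell, with blank-run and drift correction, after capturing biotinylated GIPR extracellular domain to ~3500 RU. Running buffer: HBST, 0.1% DMSO. A 1:1 Langmuir model gave kinetic rates, KD, t1/2 and pKD.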
# [3] = Plasma stability assay, mouse plasma; assay type: in vitro ADME; conditions: 37° C., % intact compound remaining after 4 h or 24 h
# Experimental: In order to determine the stability of selected compounds of the invention in human and mouse plasma, a plasma stability assay was carried out. Such plasma stability assay measures degradation of compounds of the present invention in blood plasma. This is an important characteristic of a compound as compounds, with the exception of pro-drugs, which rapidly degrade in plasma, generally show poor in vivo efficacy. […] The stability is sufficient for the diagnostic, therapeutic and theragnostic use of these compounds according to the present invention.
# The plasma stability samples were prepared by spiking 50 μL plasma aliquots (all K2EDTA) with 1 μL of a 0.5 mM compound stock solution in DMS0. After vortexing the samples were incubated in a Thermomixer at 37° C. for 0, 4 and 24 hours. After incubation the samples were stored on ice until further treatment. All samples were prepared in duplicates.
# A suitable internal standard was added to each sample (1 μL of a 0.5 mM stock solution in DMSO). Protein precipitation was performed by addition of 250 μL of acetonitrile containing 1% trifluoroacetic acid. After incubation at room temperature for 30 min the precipitate was separated by centrifugation and 150 μL of the supernatant was diluted with 150 μL of 1% aqueous formic acid.
# Additionally, recovery was determined by spiking a pure plasma sample that only contained the internal standard after treatment with a certain amount of the compound.
# Carry-over was evaluated by analysis of a blank sample (20% acetonitrile) after the highest calibration sample.
# [4] = biological target: human Gastric Inhibitory Peptide Receptor (GIPR) (human) (UniProt P48546); assay: FACS competition vs biotinylated GIP-057 on CHO-K1-hGIPR cells; category D: pIC50 <=6.0
# [5] = competition with 20 nM GIP-057, 4° C., 1 hour
"IC50 [1, 5] [nM]",Mouse plasma stability category [3],pIC50 [4] [pic50],Molecule,also measured
< 10,A (>80% intact after 24 hours),,"CC[C@H](C)[C@@H]1NC(=O)[C@H](CC(C)C)NC(=O)C2(CCOCC2)NC(=O)[C@@H](NC(=O)[C@@H](CC(C)C)NC(=O)[C@H](CCC(=O)O)NC(=O)[C@@H]2C[C@@H](O)CN2C(=O)[C@H](Cc2c[nH]c3ccc(Cl)cc23)NC(=O)[C@H](Cc2c[nH]c3ccccc23)NC(=O)[C@H](CC(=O)O)NC(=O)CN2CCC(NC(=O)[C@@H](CCC(=O)NC[C@H](O)[C@@H](O)[C@H](O)[C@H](O)CO)NC(=O)CN3CCN(CC(=O)O)CCN(CC(=O)O)CCN(CC(=O)O)CC3)CC2)CSCc2cccc(n2)CSC[C@@H](C(=O)NC2CCN(CC(=O)N[C@H](CCC(=O)NC[C@H](O)[C@@H](O)[C@H](O)[C@H](O)CO)C(N)=O)CC2)NC1=O [GIP-005, DOTA-glu(AGLU)-APAc-Asp-Trp-5Clw-Hyp-Glu-leu-[Cys(2Lut)-Thp-Leu-Ile-Cys]-APAc-glu(AGLU)-NH2] ({DOTA}-[dE](NH(1-deoxy-D-glucityl))[X1]DW[Trp(5-Cl)][Hyp]E[dL]C[Thp]LIC[X1][dE](NH(1-deoxy-D-glucityl))-NH2; linker 9-13 via Pyridine(2,6-diCH2))","t1/2 Category ([2]; SPR dissociation half-life): A (t1/2 values>15 min); Kd ([2]; SPR, 1:1 Langmuir binding model, read-out: pKD Category (converted)): < 1 nM"
10 to 79.4,B (>80% intact after 4 hours),,"CC[C@H](C)[C@@H]1NC(=O)[C@H](CC(C)C)NC(=O)C(C)(C)NC(=O)[C@@H](NC(=O)[C@@H](CC(C)C)NC(=O)[C@H](CCC(=O)O)NC(=O)[C@@H]2CCCN2C(=O)[C@H](Cc2c[nH]c3ccccc23)NC(=O)[C@H](Cc2c[nH]c3ccccc23)NC(=O)[C@H](CC(=O)O)NC(=O)CCC(=O)NCCCOCCOCCOCCCNC(=O)CN2CCN(CC(=O)O)CCN(CC(=O)O)CCN(CC(=O)O)CC2)CSCc2cccc(c2)CSC[C@@H](C(N)=O)NC1=O [GIP-128, DOTA-Ttds-Asp-Trp-Trp-Pro-Glu-leu-[Cys(3MeBn)-Aib-Leu-Ile-Cys]-NH2] ({X3-Suc}-DWWPE[dL]C[Aib]LIC-NH2; linker 7-11 via mXylylene)",
10 to 79.4,B (>80% intact after 4 hours),,"CC[C@H](C)[C@@H]1NC(=O)[C@H](CC(C)C)NC(=O)C(C)(C)NC(=O)[C@@H](NC(=O)[C@@H](CC(C)C)NC(=O)[C@H](CCC(=O)O)NC(=O)[C@@H]2CCCN2C(=O)[C@H](Cc2c[nH]c3ccccc23)NC(=O)[C@H](Cc2c[nH]c3ccccc23)NC(=O)[C@H](CC(=O)O)NC(=O)CCC(=O)NCCCOCCOCCOCCCNC(=O)CN2CCN(CC(=O)O)CCN(CC(=O)O)CCN(CC(=O)O)CC2)CSCc2cccc(c2)CSCCNC1=O [GIP-129, DOTA-Ttds-Asp-Trp-Trp-Pro-Glu-leu-[Cys(3MeBn)-Aib-Leu-Ile-AET]] ({X3-Suc}-DWWPE[dL]C[Aib]LI; linker 7-C via X7)",
,B (>80% intact after 4 hours),,"CC[C@H](C)[C@@H]1NC(=O)[C@H](CC(C)C)NC(=O)C(C)(C)NC(=O)[C@@H](NC(=O)[C@H](CC(C)C)NC(=O)[C@@H](CCC(=O)O)NC(=O)C2CCCN2C(=O)[C@H](Cc2c[nH]c3ccccc23)NC(=O)[C@H](Cc2c[nH]c3ccccc23)NC(=O)[C@H](CC(=O)O)NC(=O)CCC(=O)NCCCOCCOCCOCCCNC(=O)CN2CCN(CC(=O)O)CCN(CC(=O)O)CCN(CC(=O)O)CC2)CSCc2cccc(c2)CSC[C@@H](C(N)=O)NC1=O (stereo partly drawn) [GIP-270, DOTA-Ttds-Asp-Trp-Trp-Pro-glu-Leu-[Cys(3MeBn)-Aib-Leu-Ile-Cys]-NH2] ({X3-Suc}-DWW[ξP][dE]LC[Aib]LIC-NH2; linker 7-11 via mXylylene)","IC50 ([1]; competition with 20 nM GIP-057, 4° C. for 1 hour): 100 to 794 nM"
,,< 6,Ac-Asp-Trp-1Ni-Pro-Glu-Thi-[Cys(3MeBn)-Aib-Leu-Ile-Cys]-NH2 (peptide),
,,< 6,HO-Succinyl-Trp-Trp-Pro-Glu-leu-[Cys(3MeBn)-ala-Leu-Ile-Cys]-Ttds-Lys(DOTA)-NH2 (peptide),
,,< 6,{DOTA-Ttds}-[Trp(5-Cl)]PE[dL]DWCIL[Aib][Cysteamide] (linker 7-11 via mXylylene) [DOTA-Ttds-5Clw-Pro-Glu-leu-Asp-Trp-[Cys(3MeBn)-Ile-Leu-Aib-AET]],
,,< 6,Ac-DW[Phe(2-Cl)][Hyp]E[dL]C[Thp]LIC-NH2 (linker 7-11 via 2Lut″) [Ac-Asp-Trp-Ocf-Hyp-Glu-leu-[Cys(2Lut)-Thp-Leu-Ile-Cys]-NH2],

# — US20250296971A1, “GASTRIC INHIBITORY PEPTIDE RECEPTOR LIGANDS” (priority 2021, published 2025)
